Experiments:
[1] = system: platelets in platelet rich plasma (PRP); experiment: Platelet aggregation by washer (disk) minimum position in platelet rich plasma; format: cell-based; conditions: platelet rich plasma containing 1.5 U/mL heparin; 20 micromolar ADP; relative to absence of ADP; FIG. 8
Source text: Platelet rich plasma (PRP) containing 1.5 U/mL heparin was filled into a six-channel cartridge similar to cartridge 200 depicted in and described regarding FIG. 7 for use with an analyzer similar to analyzer 300 depicted in and described regarding FIG. 6. The analyzer and cartridge were similar to those described in U.S. Pat. Nos. 5,629,209 and 6,613,286.
One chamber of the cartridge contained ADP such that the concentration in the chamber was 20 micromolar after introduction of the sample. Another chamber included no ADP. No other clot enhancing agent was in the sample or chamber of the cartridge. The chambers included a ferromagnetic washer. The cartridge was inserted in the analyzer before PRP sample fill. Immediately after the sample introduction, the test began, and platelet aggregation was analyzed.
The analyzer was programmed to hold the washer (disk) at the top of the chamber for 90 to 95% of the test cycle (a test cycle is the time sum of lift time and drop time), which was about 4.5 seconds for a test cycle of 5 seconds, to ensure platelets in the test sample aggregated and accumulated at the bottom of the chamber. The washer was allowed to drop (electromagnet deactivated), and the washer minimum position was determined by the proximity sensor (e.g., sensor 30 depicted in and described regarding FIGS. 2-5) in the presence and absence of ADP.

[2] = system: platelet poor plasma; experiment: Platelet aggregation by washer (disk) minimum position in platelet poor plasma; format: cell-based; conditions: platelet poor plasma containing 1.5 U/mL heparin; 20 micromolar ADP; FIG. 9
Source text: Platelet poor plasma […] containing 1.5 U/mL heparin was filled into a six-channel cartridge similar to cartridge 200 depicted in and described regarding FIG. 7 for use with a blood analyzer similar to analyzer 300 depicted and described regarding FIG. 6. The analyzer and cartridge were similar to those described in U.S. Pat. Nos. 5,629,209 and 6,613,286. A chamber of the cartridge contained ADP such that the concentration in the chamber was 20 micromolar after introduction of the sample. No other clot enhancing agent was in the sample or chamber of the cartridge. The chambers included a ferromagnetic washer. Following introduction of the sample after the cartridge was inserted into the blood analyzer, the test was started, and platelet aggregation was analyzed. The blood analyzer was programmed to hold the washer (disk) at the top of the chamber for 90 to 95% of the test cycle (a test cycle is the time sum of lift time and drop time), which was about 4.5 seconds for a test cycle of 5 seconds, to ensure platelets in the test sample aggregated and accumulated at the bottom of the chamber. The washer was allowed to drop (electromagnet deactivated), and the washer minimum position was determined.

## Nc1ncnc2c1ncn2[C@@H]1O[C@H](COP(=O)(O)OP(=O)(O)O)[C@@H](O)[C@H]1O [ADP, adenosine diphosphate]
[1]
  washer (disk) minimum position (platelet aggregation): increased
[2]
  disk minimal position (platelet aggregation): did not increase
